pIC50: −log10 of the molar value. Numbered stars: 1 amine (or outer) side, 2 acyl side, 3 side chain; on linkers, the order of the positions; unused ones are H or OH. Square brackets hold non-standard residues; d marks the D form. Ends that are not written are not given here. Peptide text beside a SMILES is read from it. * marks the point of attachment. X3 = O=C([C@H](Cc1c[nH]cn1)N(Cc1ccc(Cl)cc1)[*:1])[*:2]; Fmoc = O=C(OCC1c2ccccc2-c2ccccc21)* Some results are limits rather than exact numbers.

Assay [1] concerns the target T1, chicken gizzard Tpm (Gallus gallus, UniProt P19352).
T1 construct: purchased Sigma; host or cells: chicken gizzard (tissue-derived, as the name says)
Nature of the assay: Binding to immobilized Tpm in a 96 well plate (biotin-HKa competition or direct binding). Particulars: 10 μM ZnCl2; for pIC50: displacement of 10 nM biotinylated-HKa; for binding to immobilized Tpm / displacement of biotin-HKa (in words): 10 nM biotin-HKa, 200 ng chicken gizzard Tpm. The method, then: Plates are coated at room temperature with chicken gizzard Tpm (Sigma) in Tris buffer-saline (TBS) (200 ng/well). After incubation for 2 hours, wells are washed with TBS, then 1% BSA/TBS/Tween-20 is added to each well and incubate at 37° C. for two hours. HKa (Enzyme Laboratories) that had been previously biotinylated with EZ-Link (Pierce) according to the manufacturers instructions, is added to the plate at a concentration of 10 nM together with ZnCl2 (10 μM) and the appropriate concentration of the protein, domain or peptide competitor. The plates are incubated at room temperature and then washed with TBS/Tween-20. Avidin-HRP is added, incubated for 20 minutes at room temperature, washed with TBS/Tween-20 and the chromogenic substrate is added. The reaction is stopped with sulfuric acid and the plate read at 490 nm.
(§1) The IC50 for the displacement of biotinylated-HKa for the peptides shown in Table 5 was determined as follows: 10 nM biotin-HKa is added to a 96 well plate previously coated with 200 ng of chicken gizzard Tpm in the presence of 10 μM ZnCl2. Increasing amounts of the peptides are added to the wells. The remaining biotin-HKa bound to Tpm was detected using avidin-HRP and a chromogenic substrate. A Kd was determined by non-linear regression analysis of the empirical data. The effect on the Matrigel Plug assay was determined as follows: Matrigel (0.5 mL) containing 400 ng/ml of bFGF, 50 μg/ml heparin with or without the peptide (300 μM) or saline buffer are injected in the flanks of a mouse. After five days, the plugs are removed and the plugs scanned.
The N-terminus of the pentapeptide HHPHG has been derivatized (capped) in an attempt to increase the pentapeptides' affinity to Tpm by increasing productive molecular contacts (or interactions). […] The IC50 for the displacement of biotinylated-HKa for the capped peptides shown in the table was determined as follows: 10 nM biotin-HKa was added to a 96 well plate previously coated with 200 ng of chicken gizzard Tpm in the presence of 10 μM ZnCl2. Increasing amounts of the peptides were added to the wells. The remaining biotin-HKa bound to Tpm was detected using avidin-HRP and a chromogenic substrate. A Kd was determined by non-linear regression analysis of the empirical data

In assay [2] the test system is MatLyLu cells. Nature of the assay: Matrigel/MatLyLu model (Matrigel plug with tumor cells). The class given is in vivo. The note with it: 700 μM ATN230 or 900 μM ATN294, 2×10^6 MatLyLu cells in mouse flank, seven days. The text has this:
In this assay, tumor cells, for example 1-5×10^6 cells of the 3LL Lewis lung carcinoma or the rat prostate cell line MatLyLu, are mixed with Matrigel® and then injected into the flank of a mouse following the protocol described in Sec. B., above. A mass of tumor cells and a powerful angiogenic response can be observed in the plugs after about 5 to 7 days. The anti-tumor and anti-angiogenic action of a compound in an actual tumor environment can be evaluated by including it in the plug. Measurement is then made of tumor weight, Hb levels or fluorescence levels (of a dextran-fluorophore conjugate injected prior to sacrifice). To measure Hb or fluorescence, the plugs are first homogenize with a tissue homogenizer.

Assay [3] has as its system bFGF-induced angiogenesis. Nature of the assay: Matrigel plug assay (bFGF-induced angiogenesis). The class given is in vivo, mouse. The note with it: 400 ng/ml bFGF, five days, plugs scanned; for Inhibits Angiogenesis (Matrigel ® assay): peptide 300 μM, 50 μg/ml heparin. The method, then: This assay is performed essentially as described by Passaniti et al. (Lab Invest. 67:519-528 (1992). Ice-cold Matrigel® (e.g., 500 μL) (Collaborative Biomedical Products, Inc., Bedford, Mass.) is mixed with heparin (e.g., 50 μg/ml), FGF-2 (e.g., 400 ng/ml) and the compound to be tested. In some assays, bFGF may be substituted with tumor cells as the angiogenic stimulus. The Matrigel® mixture is injected subcutaneously into 4-8 week-old athymic nude mice at sites near the abdominal midline, preferably 3 injections per mouse. The injected Matrigel® forms a palpable solid gel. Injection sites are chosen such that each animal receives a positive control plug (such as FGF-2+heparin), a negative control plug (e.g., buffer+heparin) and a plug that includes the compound being tested for its effect on angiogenesis, e.g., (FGF-2+heparin+compound). All treatments are preferably run in triplicate. Animals are sacrificed by cervical dislocation at about 7 days post injection or another time that may be optimal for observing angiogenesis. The mouse skin is detached along the abdominal midline, and the Matrigel® plugs are recovered and scanned immediately at high resolution. Plugs are then dispersed in water and incubated at 37° C. overnight. Hemoglobin (Hb) levels are determined using Drabkin's solution (e.g., obtained from Sigma) according to the manufacturers' instructions. The amount of Hb in the plug is an indirect measure of angiogenesis as it reflects the amount of blood in the sample. In addition, or alternatively, animals may be injected prior to sacrifice with a 0.1 ml buffer (preferably PBS) containing a high molecular weight dextran to which is conjugated a fluorophore. The amount of fluorescence in the dispersed plug, determined fluorimetrically, also serves as a measure of angiogenesis in the plug. Staining with mAb anti-CD31 (CD31 is “platelet-EC adhesion molecule or PECAM”) may also be used to confirm neovessel formation and microvessel density in the plugs.
as §1
These cyclic peptides were also tested for their ability to inhibit bFGF-induced angiogenesis in vivo in a Matrigel plug assay. Matrigel (0.5 mL) containing 400 ng/ml of bFGF, 50 μg/ml heparin with or without 10 μM peptide (ATN-310, ATN-311 or ATN-312 or saline buffer for the controls, was injected subcutaneously in the hind flanks of a mouse as described above. All the treatments were done in triplicate. After five days, the vascularization of the Matrigel plug was determined fluorometrically after i.v. injection of 100 μl of dextran conjugated with fluorescein isothiocyanate (FITC-dextran; MW 250,000, Sigma). Five days after injection, the plugs were removed and subjected to mincing of tissue which releases vascular FITC-dextran into the supernatant. Samples of supernatant were subjected to fluorimetry as a measure of vascularity of the plug. The amount of vasculature (neovessels) is directly proportional to the fluorescent signal which reflects the total vascular blood volume of the plug. The results are shown in Table 7, below and expressed as arbitrary fluorescence units or as % inhibition relative to the negative control.

For assay [4], the target named is T2, D5 domain of human kininogen, HKa (Homo sapiens, UniProt P01042).
T2 construct: made in house
T2 sequence (P01042 402-526): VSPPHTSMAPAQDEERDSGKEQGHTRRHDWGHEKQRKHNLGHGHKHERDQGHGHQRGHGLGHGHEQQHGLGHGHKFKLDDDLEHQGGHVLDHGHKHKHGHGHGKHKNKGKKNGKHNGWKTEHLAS
Nature of the assay: Binding to HKa D5 (affinity column). How it is done:
Chicken gizzard Tpm was partially digested with Chymotrypsin as described for FIG. 19 for 100 minutes so that a 20 kDa fragment was enriched. HK-D5 had previously immobilized in an activated Sepharose (CNBr-activated Sepharose 4 B, Amersham Biosciences). The chymotryptic fragments were incubated with the HK-D5-Sepharose resin in TBS containing 10 μM ZnCl2, washed extensively in the same buffer and eluted in 2 M NaCl. The samples were run in a 10% NuPage gel (Invitrogen).
The present inventors discovered the AALBP by passing a chymotryptic digest of cTPM1 over an affinity column comprising an antiangiogenic polypeptide, specifically, the D5 domain of human kininogen, HKa. Material that bound to the column was subjected to N-terminal sequencing. The sequence was determined to be SESVKEAQE, corresponding to residues 61-69 of cTPM1 (SEQ ID NO: 1) and residues 1-9 of SEQ ID NO:2.
The fragment was partially purified by passing the chymotryptic digest through an affinity column of Sepharose-HKa-D5. The column was extensively washed and eluted with high salt buffer. The resulting material was run on an SDS gel which appears in (FIG. 20). […]

The mark [5] stands for this setting: Table 6, N-capped HHPHG peptides.

T1 sequence (P19352 1-284 isoform P19352-2): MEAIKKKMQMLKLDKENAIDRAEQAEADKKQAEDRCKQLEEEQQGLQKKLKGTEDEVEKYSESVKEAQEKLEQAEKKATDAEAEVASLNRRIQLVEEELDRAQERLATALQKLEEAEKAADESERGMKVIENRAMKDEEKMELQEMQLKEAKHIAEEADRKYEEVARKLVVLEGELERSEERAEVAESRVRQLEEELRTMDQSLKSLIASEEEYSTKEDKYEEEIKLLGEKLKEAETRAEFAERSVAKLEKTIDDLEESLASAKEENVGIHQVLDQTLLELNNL
T1 sequence (P04268 1-284 isoform P04268-2 F73S/I172L/T199L/N203E/L204A partner): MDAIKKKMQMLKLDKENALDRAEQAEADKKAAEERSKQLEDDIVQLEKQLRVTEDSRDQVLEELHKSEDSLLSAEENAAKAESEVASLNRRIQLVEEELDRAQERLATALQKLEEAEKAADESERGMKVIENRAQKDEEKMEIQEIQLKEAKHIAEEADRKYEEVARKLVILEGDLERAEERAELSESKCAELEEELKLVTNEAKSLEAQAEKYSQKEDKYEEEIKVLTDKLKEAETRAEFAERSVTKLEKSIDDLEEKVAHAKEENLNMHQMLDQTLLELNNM

Regarding `O=C(O)CNC(=O)[C@H](Cc1c[nH]cn1)NC(=O)[C@@H]1CCCN1C(=O)[C@H](Cc1c[nH]cn1)NC(=O)[C@H](Cc1c[nH]cn1)NCc1ccc(Cl)cc1` [ATN-276.000.01, 4-Chlorobenzyl] (H-[X3]HPHG-OH), the negative-log IC50 (pIC50) (as a rule, the IC50 on a negative log10 scale, so that one unit is a factor of ten) in assay [1] (setting [5]) was 4.64. Still for that read-out and setting: the same measure for `O=C(O)CNC(=O)[C@H](Cc1c[nH]cn1)NC(=O)[C@@H]1CCCN1C(=O)[C@H](Cc1c[nH]cn1)NC(=O)[C@H](Cc1c[nH]cn1)NC(=O)OCC1c2ccccc2-c2ccccc21` [ATN-278.000.01, Fmoc] (Fmoc-HHPHG-OH; C-terminus assumed): 4.26.

Regarding AHPHG [ATN294], the “binding to immobilized Tpm / displacement of biotin-HKa (in words)” value in assay [1] is listed as “abolished”. For the same compound, the “inhibition of MatLyLu growth, plug weight (in words)” value in assay [2] was “not”; in assay [2] (listed as AHPHG), “significantly less anti-tumor activity”. Turning to APPHG [ATN246, APPHG], the pIC50 in assay [1] (Table 5) was under 2.00. The compound Ac-HHPHG [ATN269, c-HHPHG] had a pIC50 in assay [1] (Table 5) of under 2.00. In turn, Ac-HHPHG-NH2 [ATN239, c-HHPHG-c] had a pIC50 in assay [1] (Table 5) of under 2.00. On the same count and under the same terms, the same measure for Ac-HPPHG-NH2 [ATN231, c-HPPHG-c]: under 2.00; for Ac-PPPHG-NH2 [ATN229, c-PPPHG-c]: under 2.00. Take HHPHG [ATN230, HHPHG]: the results for the “Inhibits Angiogenesis (Matrigel ® assay)” value in assay [3] and in assay [3] (listed as HHPHG) were “Yes” and “substantial activity”, respectively. For the same compound, the figures for the “inhibition of MatLyLu growth, plug weight (in words)” value in assay [2] and in assay [2] (listed as HHPHG) were “inhibited MatLyLu growth” and “anti-tumor activity”, respectively. For HKNKGKKN [ATN16, HKNKGKKN], the pIC50 in assay [1] (Table 5) was 4.00. In addition, the “Inhibits Angiogenesis (Matrigel ® assay)” value in assay [3] is “Yes”. As for HPPHG [ATN228, HPPHG], the “binding to immobilized Tpm / displacement of biotin-HKa (in words)” value in assay [1] was “bound”. Also, in assay [3] (20 μg peptide), the “inhibition of angiogenesis in the Matrigel plug model (in words)” value is given as “inhibited angiogenesis”. Besides, the “Inhibits Angiogenesis (Matrigel ® assay)” value in assay [3] is given as “Yes”. PPPHG [ATN227, PPPHG]: the pIC50 in assay [1] (Table 5) was under 2.00. As for “SEQ ID NO:2: chymotryptic fragment, residues 61-214 of chicken gizzard cTPM1, about 17 kDa”, the “binding to HKa D5 (in words)” value in assay [4] is listed as “binds”. Consider TRRHDWGH [ATN232, TRRHDWGH], for which the pIC50 in assay [1] (Table 5) is 3.85. The “Inhibits Angiogenesis (Matrigel ® assay)” value in assay [3] was “Yes”.
